Activity calls are given as the source filed them. The calls are words filed in the database; no cut-off is given here.
Experiments:
[1] = Cytotoxicity against mouse B16F10 cells assessed as cell viability at 5 uM after 24 hrs by MTT assay relative to control; assay type: cell-based, B16-F10; settings: read-out: Activity
[2] = Cytotoxicity against mouse B16F10 cells assessed as cell viability at 10 uM after 24 hrs by MTT assay relative to control; assay type: cell-based, B16-F10; settings: read-out: Activity
[3] = target: T1, Tyrosinase (Mus musculus) (UniProt P11344); test: Inhibition of tyrosinase in alpha-MSH-stimulated mouse B16F10 cells assessed as L-DOPA oxidation after 24 hrs; assay type: cell-based; settings: B16-F10
T1 sequence (whole entry): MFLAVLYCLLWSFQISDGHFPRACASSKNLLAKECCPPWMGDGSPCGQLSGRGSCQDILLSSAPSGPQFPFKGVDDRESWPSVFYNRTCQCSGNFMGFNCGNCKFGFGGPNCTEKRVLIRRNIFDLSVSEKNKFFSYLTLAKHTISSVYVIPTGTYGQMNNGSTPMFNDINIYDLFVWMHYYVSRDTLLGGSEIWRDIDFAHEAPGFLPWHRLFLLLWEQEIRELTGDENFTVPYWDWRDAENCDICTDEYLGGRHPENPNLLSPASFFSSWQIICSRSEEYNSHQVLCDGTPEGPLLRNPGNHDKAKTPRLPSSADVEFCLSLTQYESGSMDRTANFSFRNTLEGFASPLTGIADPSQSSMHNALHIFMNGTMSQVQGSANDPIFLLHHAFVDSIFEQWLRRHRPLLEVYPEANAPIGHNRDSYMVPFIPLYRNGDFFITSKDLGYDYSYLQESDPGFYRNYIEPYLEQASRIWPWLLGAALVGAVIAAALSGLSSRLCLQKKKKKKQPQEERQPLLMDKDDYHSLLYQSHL

[4] = test system: B16-F10; test: Inhibition of alpha-MSH-mediated melanin biosynthesis in mouse B16F10 cells after 24 hrs; assay type: functional, cell-based
[5] = target: T2, Tyrosinase (Agaricus bisporus) (UniProt O42713); test: Competitive inhibition of mushroom tyrosinase using L-tyrosine as substrate assessed as dopachrome production after 30 mins by Lineweaver-Burk plot analysis
T2 sequence (whole entry): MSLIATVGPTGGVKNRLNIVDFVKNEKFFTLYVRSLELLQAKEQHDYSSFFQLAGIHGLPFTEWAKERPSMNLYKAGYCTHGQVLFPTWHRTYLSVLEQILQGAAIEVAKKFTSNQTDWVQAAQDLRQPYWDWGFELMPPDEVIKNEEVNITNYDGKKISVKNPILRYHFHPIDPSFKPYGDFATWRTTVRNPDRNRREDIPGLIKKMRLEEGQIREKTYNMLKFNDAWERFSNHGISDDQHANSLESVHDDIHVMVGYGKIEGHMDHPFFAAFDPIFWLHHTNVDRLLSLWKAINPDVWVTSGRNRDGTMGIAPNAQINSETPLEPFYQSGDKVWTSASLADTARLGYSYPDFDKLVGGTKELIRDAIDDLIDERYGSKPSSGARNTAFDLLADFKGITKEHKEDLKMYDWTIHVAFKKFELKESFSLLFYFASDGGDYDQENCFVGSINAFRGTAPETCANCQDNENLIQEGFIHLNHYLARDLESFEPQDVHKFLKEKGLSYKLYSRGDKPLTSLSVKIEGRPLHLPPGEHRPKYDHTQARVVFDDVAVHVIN

[6] = Cytotoxicity against mouse B16F10 cells assessed as cell viability at 25 uM after 24 hrs by MTT assay relative to control; assay type: cell-based, B16-F10; settings: read-out: Activity
[7] = test system: B16-F10; test: Inhibition of alpha-MSH-mediated melanin biosynthesis in mouse B16F10 cells at 25 uM after 24 hrs; assay type: functional, cell-based

SMILES | viability at 24 h, 5 µM [1] | viability at 24 h, 10 µM [2] | inhibition [3] | inhibition [4] | inhibition [5] | viability at 24 h, 25 µM [6] | inhibition [7]
N#C/C(=C\c1ccc(O)c(O)c1)C(N)=O | 99.6% | 98.6% | Dose-dependent effect | Dose-dependent effect | Dose-dependent effect | 96.9% | 
O=c1cc(CO)occ1O |  |  |  |  |  |  | Active
